Source: PMC12321279, “Novel 4,5‐Dihydrothiazole‐Phenylpiperazine Derivatives: Synthesis, Docking Studies and Pharmacological Evaluation as Serotonergic Agents” (Chemmedchem, 2025)

Columns and labels:
[1] = tested on: mice; assay: Amphetamine‐induced hyperactivity test; assay type: in vivo; conditions: 30 mg/kg i.p. 60 min before test, amphetamine 3 mg kg^−1 s.c., 20 min observation
Method: (§1) The tests were performed on male white mice of the Albino Swiss strain, whose weight was between 24 and 30 g in Experimental Medicine Center, Medical University of Lublin, Poland. The animals were housed (four/five per cage). Before conducting the experimental tests, the animals were subjected to an adaptation that lasted seven days. This consisted of keeping them in a room with relatively constant conditions: a temperature of 22 ± 1 °C, a humidity of 55 ± 5% and lighting that mimicked the natural day and night rhythm (12 h/12 h). Constant access to food and water was provided. Standard feed—LSM Motycz pelleted feed—and tap water were used. Mice were randomly allocated to study groups. Each group was represented by 8–10 animals, depending on the research schedule. The experiments were performed according to the procedures set out in the regulations for animal experiments: National Institute of Health Guidelines for the Care and Use of Laboratory Animals (8th edition) and to the European Community Council Directive for the Care and Use of Laboratory Animals of 22 September 2010 (2010/63/EU). The study was approved by the Local Ethical Committee in Lublin (number of ethical approvals: 27/2023). Tested compounds: FG‐1, FG‐4, FG‐5, FG‐6, FG‐7, FG‐8, and FG‐18 were finely ground in mortars with the addition of the emulsifier Tween‐80. […]

[2] = tested on: mice; assay: DOI‐induced head‐twitch reaction (HTR); assay type: in vivo; conditions: 30 mg kg^−1 i.p. 60 min before DOI, 20 min observation
Method: as §1, with “(2010/63/EU).” for “(2010/63/EU). The study was approved by the Local Ethical Committee in Lublin (number of ethical approvals: 27/2023). Tested compounds: FG‐1, FG‐4, FG‐5, FG‐6, FG‐7, FG‐8, and FG‐18 were finely ground in mortars with the addition of the emulsifier Tween‐80.”
Head‐twitch reaction (HTR) is a very characteristic behavior of the head. […] Then, after administration of the tested compounds, DOI was immediately observed for 20 min, and the number of HTR was counted. […]

[3] = tested on: larval zebrafish; assay: PTZ‐induced acute seizure assay in larval zebrafish; assay type: in vivo, zebrafish (Danio rerio); conditions: 5 dpf larvae, 20 h incubation at maximum‐tolerated concentration (FG‐1 500 μM, FG‐18 25 μM), PTZ 20 mM, 30 min
Method: All experiments were conducted on zebrafish (Danio rerio) larvae up to 5 days post fertilization (dpf), therefore, in accordance with current European legislation, ethical permission to conduct assays was not required. However, housing and experimental procedures were performed in compliance with the National Institute of Health Guidelines for the Care and Use of Laboratory Animals and the European Union Directive of 22 September 2010 (2010/63/EU) on protecting animals used for scientific purposes. All efforts were taken to minimize larvae stress and suffering. Larvae were euthanized with an overdose of tricaine ([…]). […] Before the respective behavioral tests were conducted, larvae at 4 dpf were incubated for 20 h in different arylpiperazine derivatives solutions of maximum‐tolerated concentrations (MCTs), determined during toxicological screening.^[ [30], [32] ^] […] Basic locomotor activity was measured using an automated tracking device, Daniovision by Noldus, and the total distance traveled was quantified using EthoVision XT software of the same company (Wageningen, the Netherlands) over a 30 min long observation period. […] The PTZ‐induced hyperlocomotion (acute seizure assay) was assessed in 5 dpf larval zebrafish (after 20 h incubation with tested derivatives at MCTs). […] Similarly, the data were recorded as the distance traveled (mm) by larvae when exposed to alternating lightning. […]

[4] = tested on: mice; assay: Body temperature in normothermic mice; assay type: in vivo
Method: The tests were performed on male white mice of the Albino Swiss strain, whose weight was between 24 and 30 g in Experimental Medicine Center, Medical University of Lublin, Poland. The animals were housed (four/five per cage). Before conducting the experimental tests, the animals were subjected to an adaptation that lasted seven days. This consisted of keeping them in a room with relatively constant conditions: a temperature of 22 ± 1 °C, a humidity of 55 ± 5% and lighting that mimicked the natural day and night rhythm (12 h/12 h). Constant access to food and water was provided. Standard feed—LSM Motycz pelleted feed—and tap water were used. Mice were randomly allocated to study groups. Each group was represented by 8–10 animals, depending on the research schedule. […]
Body temperature in normothermic mice was measured in the rectum of animals by thermistor thermometer till 120 min after tested compounds injection. […] The final temperature (tf) was measured 30, 60, 90, and 120 min after the injection of tested compounds. Body temperature changes (Δt) were calculated according to the formula: Δt = tf − ti.

[5] = tested on: mice; assay: Spontaneous locomotor activity; assay type: in vivo; conditions: 20 min observation
Method: The tests were performed on male white mice of the Albino Swiss strain, whose weight was between 24 and 30 g in Experimental Medicine Center, Medical University of Lublin, Poland. The animals were housed (four/five per cage). Before conducting the experimental tests, the animals were subjected to an adaptation that lasted seven days. This consisted of keeping them in a room with relatively constant conditions: a temperature of 22 ± 1 °C, a humidity of 55 ± 5% and lighting that mimicked the natural day and night rhythm (12 h/12 h). Constant access to food and water was provided. Standard feed—LSM Motycz pelleted feed—and tap water were used. Mice were randomly allocated to study groups. Each group was represented by 8–10 animals, depending on the research schedule. The experiments were performed according to the procedures set out in the regulations for animal experiments: National Institute of Health Guidelines for the Care and Use of Laboratory Animals (8th edition) and to the European Community Council Directive for the Care and Use of Laboratory Animals of 22 September 2010 (2010/63/EU). The study was approved by the Local Ethical Committee in Lublin (number of ethical approvals: 27/2023). Tested compounds: FG‐1, FG‐4, FG‐5, FG‐6, FG‐7, FG‐8, and FG‐18 were finely ground in mortars with the addition of the emulsifier Tween‐80. A suspension was obtained, which was then diluted with aqueous solution of 0.5% methylcellulose (tylose). The mixture was then administered intraperitoneally (i.p.) to the animals 60 min before the start of the experiments. Animals in the control groups received a 0.5% tylose solution. All substances were administered via the same route of administration in appropriate dose and volume of 0.1 mL per 10 g of animal body weight. Prior to the administration of the drug, the animals were weighed, during the interval between tests, they were provided with food, water, and constant living conditions.
An Opto‐Varimex‐4 Auto‐Track animal activity meter (Columbus Instruments, USA) was used to study animal movement, which consists of eight transparent cages with lids measuring 43 × 43 × 32 cm, a set of four infrared transmitters (each transmitter has 16 laser beams) and four detectors to monitor animal movements. Testing was initiated 60 min after compound administration. For the spontaneous locomotor activity study, tylose was administered to the control group and the tested compounds. For the amphetamine‐induced or MK‐801‐induced hyperactivity tests, tylose, the tested compounds and after 30 min, amphetamine (3 mg kg^−1) or MK‐801 (0.3 mg kg^−1) were administered. While the test was being performed, animals were individually caged, initially for 5 min of adaptation, followed by 20 min of actual mobility testing.

[6] = 15 mg kg^−1 i.p. 60 min before test
[7] = 30 mg/kg i.p. 60 min before test

Row | SMILES | amphetamine‐induced hyperactivity [1] | DOI‐induced HTR (number of head twitches) [2] | distance traveled by PTZ‐exposed larvae (seizure‐like behavior) [3] | spontaneous locomotor activity [5, 6] | spontaneous locomotor activity [5, 7] | also measured
1 | O=C(NCCCN1CCN(c2ccccc2C2=NCCS2)CC1)c1ccccn1 [FG‐1, N‐(3‐(4‐(2‐(4,5‐dihydrothiazol‐2‐yl) phenyl) piperazin‐1‐yl) propyl) picolinamide] | significant decrease in amphetamine‐induced hyperactivity | significant decrease in HTR | substantially decreased | – | – | –
2 | O=C(NCCCN1CCN(c2ccccc2C2=NCCS2)CC1)c1ccncc1 [FG‐4, N‐(3‐(4‐(2‐(4,5‐dihydrothiazol‐2‐yl) phenyl) piperazin‐1‐yl) propyl) isonicotinamide] | significant decrease in amphetamine‐induced hyperactivity | – | – | – | – | –
3 | O=C(NCCCN1CCN(c2cccc(C3=NCCS3)c2)CC1)c1ccncc1 [FG‐5, N‐(3‐(4‐(3‐(4,5‐dihydrothiazol‐2‐yl) phenyl) piperazin‐1‐yl) propyl) isonicotinamide] | – | – | – | – | – | body temperature of normothermic mice ([4]; 30 mg kg^−1 i.p., from 30 to 90 min): significant decrease in the body temperature
4 | O=C(NCCCN1CCN(c2ccc(C3=NCCS3)cc2)CC1)c1ccncc1 [FG‐6, N‐(3‐(4‐(4‐(4,5‐dihydrothiazol‐2‐yl) phenyl) piperazin‐1‐yl) propyl) isonicotinamide] | – | – | – | did not change the motility of mice | significant decrease in spontaneous locomotor activity | body temperature of normothermic mice ([4]; 15 mg kg^−1 i.p., from 30 to 90 min and also in 120 min): significant decrease in the body temperature
5 | O=C1C2C3C=CC(C3)C2C(=O)N1OCCCN1CCN(c2ccccc2C2=NCCS2)CC1 (stereo not drawn) [FG‐7, 2‐(3‐(4‐(2‐(4,5‐dihydrothiazol‐2‐yl) phenyl) piperazin‐1‐yl) propoxy)‐3a,4,7,7a‐tetrahydro‐1 H‐4,7‐methanoisoindole‐1,3(2 H)‐dione] | – | – | – | did not change the motility of mice | significant decrease in spontaneous locomotor activity | –
6 | O=C(NCCCN1CCN(c2ccc(C3=NCCS3)cc2)CC1)C1CC2C=CC1C2 (stereo not drawn) [FG‐18, Endo‐ N‐(3‐(4‐(4‐(4,5‐dihydrothiazol‐2‐yl)phenyl)piperazin‐1‐yl)propyl) bicyclo[2.2.1]hept‐5‐ene‐2‐carboxamide] | – | significant decrease in HTR | significantly increased the distance traveled | – | – | –
